Key:
Format in all cases: cell-based
[1] = tested on: Human breast tumor SUM149 cells; experiment: Inhibition of tumor cell growth (alamar blue), SUM149; details: 120 h, calculated on the basis of cell growth inhibition, day 5, alamar blue, read-out: IC50 for the inhibition of SUM149 tumor cells growth
Experimental: (§1) All biological experiments (Examples 2 to 9) have been performed with recommended cell line specific culture medium. For SUM149 and L226, culture medium is supplemented with 10% Fetal Calf Serum. For HME-1 and MCF-10A, culture medium is supplemented with 5% Horse Serum.
Human breast tumor SUM149 cells (Inflammatory Breast Cancer (IBC) of basal subtype) were plated in a 96 well plate at 3000 cells/100 μL at 37° C. in 5% CO2. Compounds 1, 3, 4, 5, 6, 7, 8, 9, 10, 11, 12, 13, 14 at 10 μM were added at day 0 and day 3. The number of viable cells was determined in triplicate at day 5 by incubating 10 μL of the alamar blue staining solution for 2 hours at 37° C. (FIG. 1).
(§2) Human breast tumor SUM149 cells were plated in a 96 well plate at 3000 cells/100 μL at 37° C. in 5% CO2. Serial dilutions of drugs (compounds 1, 3 or 4) ranging from 20 μM to 300 nM were added at day 0 and day 3. The number of viable cells was determined in triplicate at day 5 by incubating 10 μL of the alamar blue staining solution for 2 hours at 37° C. (FIG. 2).
IC50 values of compounds 1-14 for the inhibition of SUM149 and L226 tumor cells growth were measured (according to the experimental procedure of Examples 2 and 3):
Human breast tumor SUM149 cells were plated in a 96 well plate at 3000 cells/100 μL at 37° C. in 5% CO2 in recommended medium containing 10% FCS or in synthetic medium without FCS. Serial dilutions of drug (compound 4) ranging from 10 μM to 0.16 μM were added at day 0 and day 3. The number of viable cells was determined in triplicate at day 5 by incubating 10 μL of the alamar blue staining solution for 2 hours at 37° C. (FIG. 11). The […] in recommended medium containing 10% FCS was measured at 2 μM, while it was measured at 0.6 μM without FCS.

[2] = tested on: caspase-3 and caspase-7 in MCF-10A cells; experiment: Caspase 3/7 activation (Caspase-Glo 3/7) in MCF-10A normal cells; details: Homo sapiens, R=RLU at 20 μM/RLU at 0 μM, 24 h, read-out: Caspase 3/7 activation R (RLU fold increase from untreated cells)
Experimental: (§3) Human normal mammary epithelial MCF-10A cells were plated in a 96 well plate at 10000 cells/100 μL at 37° C. in 5% CO2. Serial dilutions of drugs (compounds 1, 3 or 4) ranging from 20 μM to 300 nM were added at day 0. Active caspase-3 and caspase-7 were measured in triplicate after 24 h treatment by incubating 50 μL of the Caspase-Glo 3/7 reagent for 60 min at 25° C. This reagent containing the proluminescent tetrapeptide sequence DEVD in a cell lysis buffer (Promega) (FIG. 9).
(§4) The calculated values R correspond to Relative Luminescence Units (RLU) fold increase from untreated cells (R=RLU at 20 μM/RLU at 0 μM).
(§5) Caspase 3/7 activation in MCF-10A and HME-1 normal cells was also measured.

[3] = tested on: caspase-3 and caspase-7 in HME-1 cells; experiment: Caspase 3/7 activation (Caspase-Glo 3/7) in HME-1 normal cells; details: Homo sapiens, HME1, R=RLU at 20 μM/RLU at 0 μM, 24 h, read-out: Caspase 3/7 activation R (RLU fold increase from untreated cells)
Experimental: as §3, with “HME-1” for “MCF-10A”, “8).” for “9).”
as §4, §5

[4] = tested on: caspase-3 and caspase-7 in L226 cells; experiment: Caspase 3/7 activation (Caspase-Glo 3/7) in L226 tumor cells; details: Homo sapiens, R=RLU at 20 μM/RLU at 0 μM, 24 h, read-out: Caspase 3/7 activation R (RLU fold increase from untreated cells)
Experimental: as §3, with “breast tumor L226” for “normal mammary epithelial MCF-10A”, “7).” for “9).”
(§6) Caspase 3/7 activation in SUM149 and L226 tumor cells was measured.
as §4

[5] = tested on: Human normal mammary epithelial HME-1 cells; experiment: Effect on growth of normal cells (alamar blue), HME-1; details: HME1, calculated on the basis of cell growth inhibition
Experimental: as §1
as §2, with “normal mammary epithelial HME-1” for “breast tumor SUM149”, “4).” for “2).”
(§7) IC50 values of compounds 1-14 for the inhibition of MCF-10A and HME-1 normal cells growth were also measured (according to the experimental procedure of Examples 4 and 5): […]

[6] = tested on: caspase-3 and caspase-7 in SUM149 cells; experiment: Caspase 3/7 activation (Caspase-Glo 3/7) in SUM149 tumor cells; details: Homo sapiens, R=RLU at 20 μM/RLU at 0 μM, 24 h, read-out: Caspase 3/7 activation R (RLU fold increase from untreated cells)
Experimental: as §3, with “breast tumor SUM149” for “normal mammary epithelial MCF-10A”, “6).” for “9).”
as §6, §4

[7] = tested on: Human normal mammary epithelial MCF-10A cells; experiment: Effect on growth of normal cells (alamar blue), MCF-10A; details: calculated on the basis of cell growth inhibition
Experimental: as §1
as §2, with “normal mammary epithelial MCF-10A” for “breast tumor SUM149”, “5).” for “2).”
as §7

[8] = tested on: Human breast tumor L226 cells; experiment: Inhibition of tumor cell growth (alamar blue), L226; details: 120 h, calculated on the basis of cell growth inhibition, day 5, alamar blue
Experimental: as §1
Human breast tumor L226 cells (Inflammatory Breast Cancer (IBC) of ERB-B2 subtype) were plated in a 96 well plate at 3000 cells/100 μL at 37° C. in 5% CO2. Serial dilutions of drugs (compounds 1, 3 or 4) ranging from 20 μM to 300 nM were added at day 0 and day 3. The number of viable cells was determined in triplicate at day 5 by incubating 10 μL of the alamar blue staining solution for 2 hours at 37° C. (FIG. 3).
IC50 values of compounds 1-14 for the inhibition of SUM149 and L226 tumor cells growth were measured (according to the experimental procedure of Examples 2 and 3): […]

[9] = tested on: Cancer stem cells (CSCs); experiment: Aldefluor assay of cancer stem cells (ALDH+ cells), FACS; details: FIG. 12B
Experimental: Cancer stem cells (CSCs) are thought to contribute to tumor initiation, maintenance, resistance to therapy, and metastasis progression. Treatment with drugs enrich in resistant CSCs. In vitro, breast CSCs express high level of aldehyde dehydrogenase-1 (ALDH1), which can be detected by using a commercial assay (CSCs are “Aldefluor” positive). Briefly, cells were incubated in Aldefluor assay buffer containing ALDH substrate (BAAA (BODIPY®—aminoacetaldehyde), 1 μmol/L per 1×10^6 cells). Negative control was done in the presence of diethylaminobenzaldehyde (DEAB), a specific ALDH inhibitor. Cells were then incubated for 40 min at 37° C. Cells were analyzed with the LSRII flow cytometer (Becton-Dickinson). PI (Propidium Iodide) exclusion was used to gate viable cells.

Row | SMILES | IC50 [1] [µM] | IC50 [8] [µM] | fold induction at 20 µM [2] | fold induction at 20 µM [3] | fold induction at 20 µM [4] | IC50 [5] [µM] | fold induction at 20 µM [6] | IC50 [7] [µM] | aldefluor ratio (percent ALDH+ cells treated vs DMSO) [9]
1 | COc1cccc2c1C(=O)c1c(O)c3c(c(O)c1C2=O)C[C@@](O)(C(=O)CO)C[C@@H]3O[C@H]1C[C@H](N)[C@H](O)[C@H](C)O1 [doxorubicin, reference compound] | – | – | – | – | – | – | – | – | increases it
2 | CC1(C)SCCN(S(=O)(=O)c2ccc(F)cc2)[C@H]1C(=O)NO [Compound 7, (3S)—N-hydroxy-4-[(4-fluorophenyl)sulfonyl]-2,2-dimethyl-3-thiomorpholine carboxamide] | 20 | – | – | – | – | – | – | – | –
3 | CC1(C)SCCN(S(=O)(=O)CC(c2ccccc2)c2ccccc2)[C@H]1C(=O)NO [Compound 9] | 10 | – | – | – | – | – | – | – | –
4 | CC1(C)SCCN(S(=O)(=O)c2ccc(C(F)(F)F)cc2)[C@H]1C(=O)NO [Compound 6, (3S)—N-hydroxy-4-[(4-trifluoromethylphenyl)sulfonyl]-2,2-dimethyl-3-thiomorpholine carboxamide] | 2.5 | 5 | 1 | 0.9 | 2.8 | > 20 | 5.9 | > 20 | –

Continued, in another order:

Row | IC50 [1] [µM] | IC50 [8] [µM] | SMILES | fold induction at 20 µM [2] | fold induction at 20 µM [3] | fold induction at 20 µM [4] | IC50 [5] [µM] | fold induction at 20 µM [6] | IC50 [7] [µM] | aldefluor ratio (percent ALDH+ cells treated vs DMSO) [9]
5 | 5 | – | Cc1cc(C)cc(S(=O)(=O)N2CCSC(C)(C)[C@@H]2C(=O)NO)c1 [Compound 14, (3S)—N-hydroxy-4-[(3,5-dimethylphenyl)sulfonyl]-2,2-dimethyl-3-thiomorpholine carboxamide] | 1.1 | 1.1 | – | – | – | – | –
6 | 2.5 | 2.5 | CCCc1ccc(S(=O)(=O)N2CCSC(C)(C)[C@@H]2C(=O)NO)cc1 [Compound 13, (3S)—N-hydroxy-4-[(4-propylphenyl)sulfonyl]-2,2-dimethyl-3-thiomorpholine carboxamide] | 1.1 | 1.2 | 5.8 | > 20 | 5.4 | > 20 | –
7 | 20 | > 20 | CC1(C)SCCN(S(=O)(=O)c2ccccc2)[C@H]1C(=O)NO [Compound 1, (3S)—N-hydroxy-4-(benzenesulfonyl)-2,2-dimethyl-3-thiomorpholine carboxamide] | 1 | 1 | 1 | > 20 | 1 | > 20 | –
8 | 2.5 | 3.5 | CCCCCCCCCCCCc1ccc(S(=O)(=O)N2CCSC(C)(C)C2C(=O)NO)cc1 [Compound 10, (3S)—N-hydroxy-4-[(4-dodecyl)phenylsulfonyl]-2,2-di methyl-3-thiomorpholine carboxamide] | 1.1 | 0.8 | 8.9 | > 20 | 5.5 | 20 | –
9 | 2.5 | 2.5 | Cc1cc(C)c(S(=O)(=O)N2CCSC(C)(C)[C@@H]2C(=O)NO)c(C)c1 [Compound 11, (3S)—N-hydroxy-4-[(2,4,6-trimethylphenyl)sulfonyl]-2,2-dimethyl-3-thiomorpholine carboxamide] | – | – | 8.7 | > 20 | 6.4 | 20 | –
10 | 2.5 | 20 | CC1(C)SCCN(S(=O)(=O)c2ccc(CBr)cc2)[C@H]1C(=O)NO [Compound 5, (3S)—N-hydroxy-4-[(4-bromomethylphenyl)sulfonyl]-2,2-dimethyl-3-thiomorpholine carboxamide] | 1 | 1.1 | 3.2 | > 20 | 5.5 | > 20 | –

— patent US9193699B2, “Apoptosis inducing compounds” (INSTITUT NATIONAL DE LA SANTE ET DE LA RECHERCHE MEDICALE …, priority 2011, dated 2015)
